In patent US9855268B2, “Triazolo[4,5-d]pyrimidine derivatives” (Merck Patent GmbH, priority 2013, dated 2018):

Experiments:
[1] = target: T1, GCN2 (Homo sapiens, UniProt Q9P2K8); test: GCN2 enzyme assay (TR-FRET Lanthascreen, GFP-eIF2alpha phosphorylation); type: biochemical; conditions: 10 μM ATP, 80 nM GFP-eIF2a, 30 nM GCN2
Procedure, shortened: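 Phosphorylation of GFP-eIF2alpha (80 nM) by GCN2 run at room temperature with 10 μM ATP. After EDTA quench, product quantified by Lanthascreen TR-FRET (antibody–GFP complex, 340 nm excitation).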
Target sequence in this assay (Q9P2K8 whole entry, species assumed): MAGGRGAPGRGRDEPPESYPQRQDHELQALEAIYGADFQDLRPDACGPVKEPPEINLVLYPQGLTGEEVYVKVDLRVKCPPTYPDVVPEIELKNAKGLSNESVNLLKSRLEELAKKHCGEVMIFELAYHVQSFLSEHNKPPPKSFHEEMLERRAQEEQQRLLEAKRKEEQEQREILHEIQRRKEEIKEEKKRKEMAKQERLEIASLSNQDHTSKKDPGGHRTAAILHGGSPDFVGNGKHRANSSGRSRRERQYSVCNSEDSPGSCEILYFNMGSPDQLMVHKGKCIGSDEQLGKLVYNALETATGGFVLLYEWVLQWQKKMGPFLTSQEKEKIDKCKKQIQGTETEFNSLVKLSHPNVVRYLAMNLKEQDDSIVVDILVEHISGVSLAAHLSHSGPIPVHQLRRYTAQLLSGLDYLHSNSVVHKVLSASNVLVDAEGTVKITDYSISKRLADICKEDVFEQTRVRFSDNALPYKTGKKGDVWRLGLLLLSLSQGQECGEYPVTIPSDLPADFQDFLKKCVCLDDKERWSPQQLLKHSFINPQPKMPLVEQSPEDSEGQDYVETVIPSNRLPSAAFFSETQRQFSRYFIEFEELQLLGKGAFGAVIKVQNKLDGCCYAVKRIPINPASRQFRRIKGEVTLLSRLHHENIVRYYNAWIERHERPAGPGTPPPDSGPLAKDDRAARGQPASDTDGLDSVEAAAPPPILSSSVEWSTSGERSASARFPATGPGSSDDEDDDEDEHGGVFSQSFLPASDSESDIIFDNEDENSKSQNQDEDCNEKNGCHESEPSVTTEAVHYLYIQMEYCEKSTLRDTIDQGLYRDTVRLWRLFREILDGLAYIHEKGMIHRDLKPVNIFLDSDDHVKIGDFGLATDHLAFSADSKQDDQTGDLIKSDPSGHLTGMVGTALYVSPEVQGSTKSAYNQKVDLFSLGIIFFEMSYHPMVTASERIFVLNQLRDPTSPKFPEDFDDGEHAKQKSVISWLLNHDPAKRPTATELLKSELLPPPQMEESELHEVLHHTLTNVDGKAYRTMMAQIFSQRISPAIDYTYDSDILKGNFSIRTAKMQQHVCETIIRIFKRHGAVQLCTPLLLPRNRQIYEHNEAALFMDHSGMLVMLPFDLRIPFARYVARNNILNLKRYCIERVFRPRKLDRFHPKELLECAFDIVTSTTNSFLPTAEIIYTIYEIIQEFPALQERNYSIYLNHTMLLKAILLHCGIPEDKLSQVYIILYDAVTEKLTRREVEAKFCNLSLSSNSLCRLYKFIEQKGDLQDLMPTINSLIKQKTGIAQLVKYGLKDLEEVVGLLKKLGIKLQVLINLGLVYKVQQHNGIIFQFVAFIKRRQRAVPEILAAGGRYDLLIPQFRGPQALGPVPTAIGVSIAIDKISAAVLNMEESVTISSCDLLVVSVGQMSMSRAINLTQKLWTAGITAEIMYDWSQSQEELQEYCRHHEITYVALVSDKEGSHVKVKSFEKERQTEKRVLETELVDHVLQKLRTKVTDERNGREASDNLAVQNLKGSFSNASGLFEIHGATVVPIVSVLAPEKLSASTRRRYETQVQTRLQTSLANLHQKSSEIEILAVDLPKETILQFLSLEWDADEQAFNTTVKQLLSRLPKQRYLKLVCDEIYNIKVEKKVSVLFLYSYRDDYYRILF

[2] = target: GSK3α(h) (Homo sapiens, UniProt P49840); test: GSK3α radiometric kinase assay (33P-ATP, phospho GS2 peptide); type: biochemical; conditions: read-out: IC50 GSK3α (enzyme assay)
Sequence of GSK3α(h) (P49840 whole entry): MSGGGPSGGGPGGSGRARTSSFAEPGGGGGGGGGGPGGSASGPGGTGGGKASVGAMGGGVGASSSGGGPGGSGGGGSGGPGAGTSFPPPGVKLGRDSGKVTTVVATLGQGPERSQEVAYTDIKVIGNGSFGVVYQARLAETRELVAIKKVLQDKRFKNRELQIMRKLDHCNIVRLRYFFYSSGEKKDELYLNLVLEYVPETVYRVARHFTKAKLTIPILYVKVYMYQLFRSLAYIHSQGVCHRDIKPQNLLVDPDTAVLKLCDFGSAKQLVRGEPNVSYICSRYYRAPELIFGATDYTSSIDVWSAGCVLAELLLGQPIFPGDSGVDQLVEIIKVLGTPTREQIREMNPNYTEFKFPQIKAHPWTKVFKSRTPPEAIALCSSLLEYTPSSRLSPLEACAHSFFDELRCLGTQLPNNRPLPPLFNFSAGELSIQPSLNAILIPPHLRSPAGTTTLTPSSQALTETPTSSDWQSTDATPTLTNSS
Procedure, shortened: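 Human GSK3α incubated with 20 μM phospho-GS2 peptide in 8 mM MOPS pH 7,0, 10 mM Mg-acetate and [γ-33P]ATP (concentration as required), started with MgATP. After 40 minutes at room temperature, stopped with phosphoric acid; 33P incorporation measured by filtermat spotting and scintillation counting.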

[3] = target: GSK3β(h) (Homo sapiens, UniProt P49841); test: GSK3β radiometric kinase assay (33P-ATP, phospho GS2 peptide); type: biochemical; conditions: read-out: IC50 GSK3β (enzyme assay)
Sequence of GSK3β(h) (P49841 whole entry): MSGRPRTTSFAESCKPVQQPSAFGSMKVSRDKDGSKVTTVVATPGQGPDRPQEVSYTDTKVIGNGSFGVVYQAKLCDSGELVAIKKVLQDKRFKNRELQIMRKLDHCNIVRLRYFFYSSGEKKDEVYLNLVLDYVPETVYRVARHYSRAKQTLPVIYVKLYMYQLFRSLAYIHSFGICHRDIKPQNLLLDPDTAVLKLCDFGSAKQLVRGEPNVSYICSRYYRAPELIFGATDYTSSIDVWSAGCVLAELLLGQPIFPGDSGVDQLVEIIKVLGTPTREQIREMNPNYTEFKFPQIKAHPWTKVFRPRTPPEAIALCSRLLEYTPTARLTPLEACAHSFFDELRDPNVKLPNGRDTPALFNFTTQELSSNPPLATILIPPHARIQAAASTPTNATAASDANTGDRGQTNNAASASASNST
Procedure, shortened: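 Human GSK3β in 8 mM MOPS pH 7,0, 0,2 mM EDTA, 10 mM Mg-acetate with 20 μM phospho-GS2 peptide; the reaction was started with [γ-33P]MgATP at an unstated level. After 40 min at room temperature it was stopped with phosphoric acid, and the peptide was captured on P30 filtermat for scintillation counting.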

[4] = target: T1, GCN2; test: Cellular assay of GCN2 activity (phospho-eIF2alpha immunocytochemistry after tryptophanol); type: cell-based; set-up: endogenous in cells; host or cells: U2OS; conditions: Human U2OS cells, 2 h compound, 600 μM tryptophanol 30 min
Procedure, shortened: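 Readout in human U2OS cells: compound pretreatment 2 h, then tryptophanol (600 μM final) for 30 min to trigger GCN2 signalling. Fixed, permeabilised cells quantified by immunocytochemistry for phosphorylation, normalised to DMSO controls as % effect; IC50 from concentration-response.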
Target sequence in this assay (Q9P2K8 whole entry): as the sequence (Q9P2K8 whole entry, species assumed) above

IC50 [1] [nM] | IC50 [2] [nM] | IC50 [3] [nM] | IC50 [4] [nM] | Compound
< 1000 | < 1000 | < 1000 | 1000 to 5000 | CCOc1ccc(-n2nnc3cnc(N[C@@H]4CC[C@@H](C(=O)NCCOC)C4)nc32)cc1 [A248, (1R,3R)-3-[3-(4-ethoxy-phenyl)-3H-[1,2,3]triazolo[4,5-d]pyrimidin-5-ylamino]-cyclopentanecarboxylic acid (2-methoxy-ethyl)-amide]
< 1000 | < 1000 | < 1000 | 1000 to 5000 | CCOc1ccc(-n2nnc3cnc(N[C@@H]4CC[C@@H](C(=O)NCC5CCN(C)CC5)C4)nc32)cc1 [A249, (1R,3R)-3-[3-(4-ethoxy-phenyl)-3H-[1,2,3]triazolo[4,5-d]pyrimidin-5-ylamino]-cycloentanecarboxyic acid (1-methyl-piperidin-4-ylmethyl)-amide]
< 1000 | < 1000 | < 1000 | 1000 to 5000 | Cc1ccc2cc(-n3nnc4cnc(N[C@@H]5CC[C@@H](C(=O)NCCN6CCN(C)CC6)C5)nc43)ccc2n1 [A250, (1R,3R)-3-[3-(2-methyl-quinolin-6-yl)-3H-[1,2,3]triazolo[4,5-d]pyrimidin-5-ylamino]-cyclopentanecarboxylic acid [2-(4-methyl-piperazin-1-yl)-ethyl]-amide]
< 1000 | < 1000 | < 1000 | 1000 to 5000 | Cc1ccc2cc(-n3nnc4cnc(N[C@@H]5CC[C@@H](C(=O)NCC6CCN(C)CC6)C5)nc43)ccc2n1 [A252, (1R,3R)-3-[3-(2-methyl-quinolin-6-yl)-3H-[1,2,3]triazolo[4,5-d]pyrimidin-5-ylamino]-cyclopentanecarboxylic acid (1-methyl-piperidin-4-ylmethyl)-amide]
< 1000 | < 1000 | < 1000 | 1000 to 5000 | OCCn1cc(-c2ccc(-n3nnc4cnc(N[C@@H]5CC[C@@H](O)C5)nc43)cc2)cn1 [A259, (1R,3R)-3-(3-{4-[1-(2-hydroxy-ethyl)-1H-pyrazol-4-yl]-phenyl}-3H-[1,2,3]triazolo[4,5-d]pyrimidin-5-ylamino)-cyclopentanol]
< 1000 | < 1000 | < 1000 | 5000 to 10000 | NC(=O)[C@@H]1CC[C@@H](Nc2ncc3nnn(-c4ccc(-c5cnn(CCO)c5)c(F)c4)c3n2)C1 [A260, (1R,3R)-3-(3-{3-fluoro-4-[1-(2-hydroxy-ethyl)-1H-pyrazol-4-yl]-phenyl}-3H-[1,2,3]triazolo[4,5-d]pyrimidin-5-ylamino)-cyclopentanecarboxylic acid amide]
< 1000 | < 1000 | < 1000 | 5000 to 10000 | COc1ccc(-n2nnc3cnc(N[C@@H]4C=C[C@@H](C(N)=O)C4)nc32)cc1 [A273, (1S,4S)-4-[3-(4-Methoxy-phenyl)-3H-[1,2,3]triazolo[4,5-d]pyrimidin-5-ylamino]-cyclopent-2-enecarboxylic acid amide]
< 1000 | < 1000 | < 1000 | 1000 to 5000 | COCCOc1ccc(-n2nnc3cnc(N[C@@H]4CC[C@@H](C#N)C4)nc32)cc1 [A274, (1R,3R)-3-{3-[4-(2-methoxy-ethoxy)-phenyl]-3H-[1,2,3]triazolo[4,5-d]pyrimidin-5-ylamino}-cyclopentanecarbonitrile]
< 1000 | < 1000 | < 1000 | 5000 to 10000 | NC(=O)[C@@H]1CC[C@@H](Nc2ncc3nnn(-c4ccc(OCCN5CCOCC5)cc4)c3n2)C1 [A277, (1R,3R)-3-{3-[4-(2-morpholin-4-yl-ethoxy)-phenyl]-3H-[1,2,3]triazolo[4,5-d]pyrimidin-5-ylamino}-cyclopentanecarboxylic acid amide]
< 1000 | < 1000 | < 1000 | 1000 to 5000 | CC(C)(CCO)Oc1ccc(-n2nnc3cnc(N[C@@H]4CC[C@@H](C(N)=O)C4)nc32)cc1 [A278, (1R,3R)-3-{3-[4-(3-hydroxy-1,1-dimethyl-propoxy)-phenyl]-3H-[1,2,3]triazolo[4,5-d]pyrimidin-5-ylamino}-cyclopentanecarboxylic acid amide]
< 1000 | < 1000 | < 1000 | 1000 to 5000 | CCOc1ccc(-n2nnc3cnc(N[C@@H]4CC[C@@H](C(=O)NNC(C)=O)C4)nc32)cc1 [A280, (1R,3R)-3-[3-(4-ethoxy-phenyl)-3H-[1,2,3]triazolo[4,5-d]pyrimidin-5-ylamino]-cyclopentanecarboxylic acid N′-acetyl-hydrazide]
< 1000 | < 1000 | < 1000 | 1000 to 5000 | CCOc1ccc(-n2nnc3cnc(N[C@@H]4CC[C@@H](C(=O)NN)C4)nc32)cc1 [A282, (1R,3R)-3-[3-(4-ethoxy-phenyl)-3H-[1,2,3]triazolo[4,5-d]pyrimidin-5-ylamino]-cyclopentanecarboxylic acid hydrazide]
